# Measurements: patent US20230390303A1, “CANCER TREATMENT BY COMBINATION OF EP4 ANTAGONIST AND IMMUNE CHECKPOINT INHIBITOR” (priority 2020, published 2023)
# Tests used:
# Format in all cases: in vivo, human
# [1] = test system: pancreatic cancer with distant metastasis; assay: Open-label, uncontrolled study: Compound A, Nivolumab and mFFX therapy or GnP therapy as primary treatment; conditions: RECIST Guideline 1.1
# Description: This study aims to study the tolerability, safety and efficacy of a combination of Compound A as a primary treatment, Nivolumab and mFFX therapy or GP therapy in pancreatic cancer patients with distant metastases. The trial could evaluate the effect of the combination with Compound A, Nivolumab and mFFX therapy or Gnp therapy.
# Pancreatic cancer patients with distant metastases
# At the time of registration, patients who had not been treated with systemic antineoplastic agents for pancreatic cancer with distant metastases and who met all pre-determined patient selection criteria determined in view of the patient selection criteria in each trial performed so far for Compound A, Nivolumab and mFFX therapy or GnP therapy were selected.
# Compound A was orally administered once a day at a dose of 20 mg or 40 mg per administration, wherein the administration was continued until predetermined criteria for discontinuation of administration related to Compound A was met. Note that when Compound A, Nivolumab and the mFFX therapy or GnP therapy were administered on the same day, Compound A and Nivolumab were administered first, and after Compound A and Nivolumab were administered, followed by starting of the mFFX therapy or GnP therapy. […]
# [2] = test system: advanced or recurrent non-small cell lung cancer refractory to a combination therapy including an anti-PD-1 antibody or an anti-PD-L1 antibody, and a platinum …; assay: Open-label, uncontrolled study: Compound A, Nivolumab, Docetaxel and Ramucirumab as secondary therapy; conditions: Compound A 20 mg or 40 mg orally once a day + Nivolumab 360 mg IV at 3-week intervals + Docetaxel 60 mg/m^2 and Ramucirumab 10 mg/kg at 3-week intervals; RECIST Guideline 1.1; 8 months after the registration of the first patient
# Description: The purpose of this study is to examine the tolerability, safety, and efficacy of a combination of Compound A, Nivolumab, Docetaxel, and Ramucirumab as a secondary therapy in non-small cell lung cancer patients who had progressed or relapsed refractory to a combination therapy including an anti-PD-1 antibody or an anti-PD-L1 antibody and a platinum preparation. This trial can evaluate the effect of combination of Compound A, Nivolumab, Docetaxel, and Ramucirumab.
# Patients with stage IV or recurrent non-small cell lung cancer
# Compound A was orally administered once a day at a dose of 20 mg or 40 mg per administration, and the administration was continued until the predetermined criteria for discontinuation of administration related to Compound A were met. […]
# A principal investigator or a sub-investigator measured a tumor diameter of a target lesion according to RECIST Guideline 1.1 to determine the antitumor effect. […] Imaging diagnosis in the treatment phase was performed at 6-week intervals (±7 days) from Day 1 of the first cycle to Week 54, and thereafter at 12-week intervals (±7 days), and the tumor diameter was measured.
# The overall response and the best overall response were diagnostic imaging results evaluated based on the RECIST Guideline 1.1. […]
# [3] = test system: curatively resectable locally advanced rectal cancer; assay: Open-label, uncontrolled study: Compound A or Compound A plus Nivolumab as preoperative adjuvant therapy after preoperative chemoradiotherapy; conditions: Compound A 40 mg QD oral alone then with Nivolumab 240 mg Q2W IV (cohort 1) or in combination (cohort 2), after preoperative CRT; pCR = AJCC Tumor regression grade 0 (ypT0N0); 10 months after registration of the first patient
# Description: The purpose of this study was to examine the efficacy, pharmacokinetics and safety of Compound A administered alone and/or Compound A and Nivolumab administered in combination as a preoperative adjuvant therapy after a preoperative chemoradiotherapy (CRT) for curatively resectable locally advanced rectal cancer. The trial could evaluate the effect of Compound A and/or a combination of Compound A and Nivolumab as a preoperative adjuvant therapy.
# Curatively Resectable Locally Advanced Rectal Cancer
# As the preoperative CRT, the investigational new drug was administered to a patient who was treated and satisfied the following conditions. • 45 Gy/25 times of irradiation to the pelvic cavity and 5.4 Gy/3 times of boost irradiation to the primary lesion were performed. • the administration of Capecitabine was started at a dose of 1,650 mg/m^2 (825 mg/m^2 twice a day) per day. The starting dose was determined based on Method D of dosage and administration of Xeloda (registered trademark) tablet 300. • The oral administration of Capecitabine was performed in a period corresponding to 75% of 28 times which was the number of times of irradiation of radioactive ray in combination with the irradiation of radioactive ray (for example, in the case of 50.4 Gy/28 times of irradiation, oral administration for 21 days or 42 times or more as oral administration in the morning and evening). […]
# [4] = test system: radically unresectable advanced or recurrent colonic/rectal cancer; assay: Open-label, uncontrolled study: Compound A, Nivolumab and XELOX plus Bevacizumab therapy as primary treatment; conditions: Compound A 20 mg or 40 mg orally once a day + Nivolumab 360 mg IV at 3-week intervals + XELOX plus Bevacizumab therapy; RECIST Guideline 1.1; 10 months after the first patient was registered
# Description: The purpose of this study is to examine the tolerability, safety, and efficacy of a combination of Compound A, Nivolumab, and XELOX plus Bevacizumab therapy as a primary treatment in patients with radically unresectable advanced or recurrent colonic/rectal cancer. This trial can evaluate the effect of the combination of Compound A, Nivolumab, and a XELOX plus Bevacizumab therapy.
# Patients with radically unresectable advanced or recurrent colonic/rectal cancer.
# At the time of registration, patients were selected, who had not been treated with a systemic antineoplastic agent for radically unresectable advanced or recurrent colonic/rectal cancer and who met all pre-determined patient selection criteria determined in view of the patient selection criteria in each trial performed so far for Compound A, Nivolumab and XELOX plus Bevacizumab therapy. When it became clear from the registration that the criteria were not satisfied before the first administration of the investigational new drug, the administration of the investigational new drug was not started and the study was discontinued. […]
# A principal investigator or a sub-investigator measured a tumor diameter of a target lesion according to RECIST Guideline 1.1 to determine the antitumor effect. […]
smiles,measurement,setting,value
"CC(C)NC(=O)c1ccc2c(c1)[C@]1(CCO2)C[C@H]1C(=O)Nc1cc(C#N)ccc1CCCC(=O)O [Compound A, 4-[4-cyano-2-({(2′R,4S)-6-[(propane-2-yl)carbamoyl]-2,3-dihydrospiro[1-benzopyran-4,1′-cyclopropane]-2′-carbonyl}amino)phenyl]butanoic acid]",cases judged to be PR,"[1]; Compound A 20 mg or 40 mg orally once a day + Nivolumab 480 mg IV at 4-week intervals + GnP therapy, 9 months after registration of the first patient",two
same,case determined to be PR,"[1]; Compound A 20 mg or 40 mg orally once a day + Nivolumab 480 mg IV at 4-week intervals + mFFX therapy, 9 months after the registration of the first patient",one
same,case determined to be PR,[2],one
same,cases determined to be pCR,[3],3 cases
same,cases determined to be PR,[4],2 cases
